The values below come from paper PMC9653409, “Generative deep learning enables the discovery of a potent and selective RIPK1 inhibitor” (Nature Communications, 2022).

Series [1] addresses T1, RIPK1 (Homo sapiens, UniProt Q13546).
T1 sequence (Q13546 1-671): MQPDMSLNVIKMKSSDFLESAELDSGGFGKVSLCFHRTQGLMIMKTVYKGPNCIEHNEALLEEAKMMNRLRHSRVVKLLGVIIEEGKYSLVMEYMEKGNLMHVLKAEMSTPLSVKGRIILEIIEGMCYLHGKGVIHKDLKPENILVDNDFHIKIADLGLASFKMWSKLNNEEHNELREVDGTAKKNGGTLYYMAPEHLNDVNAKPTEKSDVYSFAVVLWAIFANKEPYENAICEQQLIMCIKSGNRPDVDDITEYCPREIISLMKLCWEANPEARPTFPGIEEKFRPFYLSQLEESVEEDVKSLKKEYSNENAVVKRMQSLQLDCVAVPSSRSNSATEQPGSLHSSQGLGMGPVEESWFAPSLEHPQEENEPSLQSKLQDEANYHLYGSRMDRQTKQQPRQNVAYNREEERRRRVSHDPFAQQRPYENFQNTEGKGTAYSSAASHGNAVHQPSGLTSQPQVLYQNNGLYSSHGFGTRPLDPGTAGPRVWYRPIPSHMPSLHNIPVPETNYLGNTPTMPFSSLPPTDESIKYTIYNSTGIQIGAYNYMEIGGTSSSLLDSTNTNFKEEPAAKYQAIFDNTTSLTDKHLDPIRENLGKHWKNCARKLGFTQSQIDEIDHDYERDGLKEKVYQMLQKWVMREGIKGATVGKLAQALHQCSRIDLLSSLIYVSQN
To be noted: cited from earlier work.

In the next series the test system is HT29 cells. In words: TSZ-induced HT29 cell necroptosis model (CCK8). It counts as cell-based. To be noted: Homo sapiens, HT-29; TSZ-induced necroptosis; read-out: HT29 EC50. On the procedure:
Cell necroptosis protection assays were performed in 96-well cell culture plates. Cells were plated in each well and cultured at 37 °C overnight. […] The cell survival rate was determined using a CCK8 cell viability assay kit and CLARIOstar (v5.61). […] All experiments were performed at least two times, and each EC50 value was expressed as mean ± standard deviation (SD).

Series [2] concerns the target T1, RIPK1. In words: RIPK1 kinase assay, 33P-labeled ATP assay at Eurofins. In kind it is biochemical. To be noted: read-out: RIPK1 IC50. Here is the method: In vitro kinase activity assays were conducted through the Kinase Profiling Services provided by Eurofins (Eurofins, France). The protocol for the RIPK1 assay is briefly described as follows (Protocols for other kinases are very similar and can be found in http://www.eurofins.com/pharmadiscovery). RIPK1 kinase was incubated with the test compound in assay buffer containing 8 mM MOPS (pH 7.0), 0.2 mM EDTA, 250 μM […], 10 mM magnesium acetate, and 10 μM [γ-33P]-ATP for 15 min at room temperature. The reaction was initiated by the addition of the Mg/ATP mixture. After incubation for 40 min at room temperature, and the reaction was stopped by the addition of 3% phosphoric acid. A 10 μL portion of the reaction mixture was then spotted onto a P30 filter mat and washed four times for 4 min in 0.425% phosphoric acid and once in methanol prior to drying and scintillation counting.

A short description of series [3]: Cytotoxicity at high concentration. In kind it is cell-based. To be noted: 3-10 μM.

Structures are written as SMILES.

On to `CN1C(=O)NC(Cc2c[nH]c3c(Cl)cccc23)C1=O` (centres unmarked) [Nec-1a], for which, at RIPK1 [1], the “potency against RIPK1” value is recorded as 317 nM.
A word on the EC50: it is the midpoint of the concentration-response curve. For orientation: IC50 means the concentration that gives 50% inhibition. Take `Cc1cc(Oc2ccc(F)c(C(=O)NCc3ccc(F)cc3)n2)cc(C(=O)NCc2ccc(Br)s2)c1` [RI-539]: the concentration giving a half-maximal response (EC50) in the series on HT29 cells was more than 30000 nM. Moreover, at RIPK1 [2], the concentration for half-maximal inhibition (IC50) is more than 10000 nM.
For `CNC(=O)c1n[nH]c2cc(-c3ccc(C(=O)NCc4ccc(OCCC5CC5)cc4)nc3)ccc12` [RI-413], in the series with HT29 cells, the 50% effective concentration (EC50) is more than 30000 nM. In addition, the half-maximal inhibitory concentration (IC50) on RIPK1 [2] is more than 10000 nM.
In the same order, the values of `CCOc1ccccc1CNCC(=O)c1cn2ccc(-c3ccn4nc(NC(=O)C(C)C)nc4c3)cc2n1` [RI-753, N-(7-(2-((2-ethoxybenzyl)glycyl)imidazo[1,2-a]pyridin-7-yl)-[1,2,4]triazolo[1,5-a]pyridin-2-yl)isobutyramide] are 64 nM and 463 nM.
The like results for `CC(NCC(=O)Nc1cccc(-c2cc(C(=O)NCc3cccc(F)c3)n(C)c2)n1)c1ccccc1F` (centres unmarked) [RI-470, N-(3-fluorobenzyl)-4-(6-(2-((1-(2-fluorophenyl)ethyl)amino)acetamido)pyridin-2-yl)-1-methyl-1H-pyrrole-2-carboxamide] were, in that order, more than 100000 nM and more than 10000 nM.
The like results for `CC(=O)Nc1cn2cc(-c3ccc(CNC(=O)c4cc(F)ccc4OCC4CCCC4)nc3)ccc2n1` [RI-985] were, in that order, more than 30000 nM and more than 10000 nM.
Regarding `CC(NC(=O)c1cn(C)c2ccc(-c3ccn4nc(NC(=O)C5CC5)cc4n3)cc12)c1ccccc1` (centres unmarked) [RI-056], the EC50 in the series with HT29 cells was determined as 49 nM. Further, the cytotoxicity result in series [3] was “some cytotoxicity at high concentration (3-10 μM)”. In addition, the IC50 at RIPK1 [2] was found to be 65 nM.
The like results for `CC(NC(=O)c1cn(C)c2ccc(-c3ccn4nc(NC(=O)C5CC5)cc4n3)cc12)c1ccc(F)cc1` (centres unmarked) [RI-1155] were, in that order, 40 nM, “some cytotoxicity at high concentration (3-10 μM)” and 49 nM.
